One test has as its system PBP4. The conditions noted are these: cited from earlier work.
A further test relates to CA- and HA-MRSA strains. The experiment in a line: Synergy assay, cefuroxime with two-fold dilutions of oxacillin. In kind it is cell-based, Staphylococcus aureus. The conditions noted are these: in combination with two-fold dilutions of oxacillin. As for the experimental part: (§1) Minimum inhibitory concentrations and minimum bactericidal concentrations (MIC and MBC, respectively) were determined for each isolate in triplicate by microdilution techniques with an inoculum of 5×10^5 CFU/ml according to the Clinical and Laboratory Standards Institute guidelines. Aliquots (5 μl) from clear wells were plated onto TSA drug-free plates for the determination of MBCs, followed by incubation at 37° C. for 24 and 48 hours. For the mutant strains, each one of the three clones was tested. MIC data were reported as median values from at least three independent experiments for each antibiotic. Also, strains containing pEPSA5-based plasmids were tested with and without xylose induction, but chloramphenicol was not added to avoid interference with beta-lactam resistance evaluation. […] The correct inocula were confirmed by plating serial dilutions on agar.

Another test deals with MW2 ex Δpbp3/4. Nature of the test: MIC by microdilution (CLSI). The conditions noted are these: Staphylococcus aureus, read-out: MICs. In kind it is cell-based, Staphylococcus aureus.
Text: (§2) Experiments were first performed using mutants of various PBPs. In-frame deletion mutants of the genes encoding PBP3 (MW1504) and PBP4 (MW0604), pbp3 and pbp4 respectively, were generated in the CA-MRSA strain MW2 and in HA-MRSA strain COL using the temperature-sensitive allelic replacement vector pMAD (Arnaud, M. et al. 2004. Appl. Environ. Microbiol. 70:6887-6891). PBP4 was also deleted in the HA-MRSA strains Mu50 and N315 and in the CA-MRSA strain USA300. […] Minimum inhibitory concentrations (MICs) were determined according to the Clinical and Laboratory Standards Institute and are a standard method for defining antibiotic efficacy against different organisms. Bacteria, grown to an OD650=1, were added to cation-supplemented Mueller Hinton broth (CSMHB) to achieve a final concentration of 5×10^5 CFU/ml.
as §1
In general terms: Broth dilution looks for growth in wells or tubes with falling amounts of substance.

The test system of the next test is Mu50 wild-type. Nature of the test: MIC by microdilution (CLSI). The test is classed as cell-based, Staphylococcus aureus. The conditions noted are these: Staphylococcus aureus, read-out: MICs.
Text: as §2, §1

A further test has as its system MW2 ex Δpbp3. The experiment in a line: MIC by microdilution (CLSI). The test is classed as cell-based. The conditions noted are these: Staphylococcus aureus, read-out: MICs.
Text: as §2, §1

In test [1] the test system is MW2 ex (MW2 cured of plasmid pMW2). The experiment in a line: MIC by microdilution (CLSI). The test is classed as cell-based. The conditions noted are these: Staphylococcus aureus, Table 1.
Text: as §2, §1

For a further test, the system named is USA300 Δpbp4. The experiment in a line: MIC by microdilution (CLSI). In kind it is cell-based, Staphylococcus aureus.
Text: as §2, with “The present invention was described based on a series of experiments examining the biological basis for CA-MRSA strains versus HA-MRSA strains, focusing on the role of PBPs in CA-MRSA and generally in β-lactam resistance. Experiments” for “Experiments”
as §1

The next test has as its system MW2 Δpbp3/4. The experiment in a line: MIC by microdilution (CLSI). The conditions noted are these: Staphylococcus aureus, read-out: MICs. The test is classed as cell-based, Staphylococcus aureus.
Text: as §2, with “The present invention was described based on a series of experiments examining the biological basis for CA-MRSA strains versus HA-MRSA strains, focusing on the role of PBPs in CA-MRSA and generally in β-lactam resistance. Experiments” for “Experiments”
as §1

For a further test, the system named is MW2 Δpbp3. Nature of the test: MIC by microdilution (CLSI). The test is classed as cell-based, Staphylococcus aureus. The conditions noted are these: Staphylococcus aureus, read-out: MICs.
Text: as §2, with “The present invention was described based on a series of experiments examining the biological basis for CA-MRSA strains versus HA-MRSA strains, focusing on the role of PBPs in CA-MRSA and generally in β-lactam resistance. Experiments” for “Experiments”
as §1

Another test concerns MW2 ex Δpbp4. Nature of the test: MIC by microdilution (CLSI). The test is classed as cell-based, Staphylococcus aureus. The conditions noted are these: Staphylococcus aureus, read-out: MICs.
Text: as §2, with “The present invention was described based on a series of experiments examining the biological basis for CA-MRSA strains versus HA-MRSA strains, focusing on the role of PBPs in CA-MRSA and generally in β-lactam resistance. Experiments” for “Experiments”
as §1

In a further test the test system is N315 wild-type. Nature of the test: MIC by microdilution (CLSI). In kind it is cell-based, Staphylococcus aureus. The conditions noted are these: Staphylococcus aureus, read-out: MICs.
Text: as §2, with “The present invention was described based on a series of experiments examining the biological basis for CA-MRSA strains versus HA-MRSA strains, focusing on the role of PBPs in CA-MRSA and generally in β-lactam resistance. Experiments” for “Experiments”
as §1

The subject of another test is MW2 Δpbp4::pbp4. The experiment in a line: MIC by microdilution (CLSI). The test is classed as cell-based, Staphylococcus aureus. The conditions noted are these: Staphylococcus aureus, read-out: MICs.
Text: as §2, with “The present invention was described based on a series of experiments examining the biological basis for CA-MRSA strains versus HA-MRSA strains, focusing on the role of PBPs in CA-MRSA and generally in β-lactam resistance. Experiments” for “Experiments”
as §1

The next test concerns MW2 Δpbp4. Nature of the test: MIC by microdilution (CLSI). In kind it is cell-based, Staphylococcus aureus.
Text: as §2, with “The present invention was described based on a series of experiments examining the biological basis for CA-MRSA strains versus HA-MRSA strains, focusing on the role of PBPs in CA-MRSA and generally in β-lactam resistance. Experiments” for “Experiments”
as §1

The test system of another test is COL wild-type. Nature of the test: MIC by microdilution (CLSI). The conditions noted are these: Staphylococcus aureus, read-out: MICs. In kind it is cell-based, Staphylococcus aureus.
Text: as §2, with “The present invention was described based on a series of experiments examining the biological basis for CA-MRSA strains versus HA-MRSA strains, focusing on the role of PBPs in CA-MRSA and generally in β-lactam resistance. Experiments” for “Experiments”
(§3) Although PBP4, similar to PBP2A, binds with low affinity to many β-lactams, PBP4 binds cefoxitin, a semi-synthetic β-lactam derived from cephamycin C, with high affinity (Nair, S. R. and C. E. Cherubin. 1978. Antimicrob. Agents Chemother. 14:866-875).
as §1

In the next test the test system is MW2 (USA400) wild-type. The experiment in a line: MIC by microdilution (CLSI). The test is classed as cell-based, Staphylococcus aureus. The conditions noted are these: Staphylococcus aureus, USA400, read-out: MICs.
Text: as §2, with “The present invention was described based on a series of experiments examining the biological basis for CA-MRSA strains versus HA-MRSA strains, focusing on the role of PBPs in CA-MRSA and generally in β-lactam resistance. Experiments” for “Experiments”
as §3, §1

Another test concerns USA300 wild-type. Nature of the test: MIC by microdilution (CLSI). In kind it is cell-based, Staphylococcus aureus. The conditions noted are these: Staphylococcus aureus, USA300, read-out: MICs.
Text: as §2, with “The present invention was described based on a series of experiments examining the biological basis for CA-MRSA strains versus HA-MRSA strains, focusing on the role of PBPs in CA-MRSA and generally in β-lactam resistance. Experiments” for “Experiments”
as §3, §1

The text below walks through data of patent US9427468B2, “Compositions and methods for diagnosing and treating community-acquired methicillin-resistant Staphylococcus aureus” (priority 2007, dated 2016).

Structures are written as SMILES. In brackets after ≈: the same amount, converted by molar mass.

As to `CN(C)CCn1nnnc1SCC1=C(C(=O)O)N2C(=O)[C@@H](NC(=O)Cc3csc(N)n3)[C@H]2SC1` [cefotiam], in the test with PBP4, the “affinity for PBP4” value is “no affinity”.

For `CO/N=C(\C(=O)N[C@@H]1C(=O)N2C(C(=O)O)=C(COC(N)=O)CS[C@H]12)c1ccco1` [Cefuroxime, cefuroxime], the “affinity for PBP4” value in the test with PBP4 is “very low affinity”. For the same compound, the “effect on oxacillin MICs” value in the test on CA- and HA-MRSA strains is listed as “no effect whatsoever”.

Regarding `CCOc1ccc2ccccc2c1C(=O)N[C@@H]1C(=O)N2[C@@H]1SC(C)(C)[C@@H]2C(=O)O` [NF, nafcillin], the MIC in the test with MW2 ex Δpbp3/4 amounted to 1 µg/mL (≈ 2.41 µM); in the test with Mu50 wild-type it was 256 µg/mL (≈ 618 µM); in the test on MW2 ex Δpbp3, 16 µg/mL (≈ 38.6 µM); in test [1], 16 µg/mL (≈ 38.6 µM); in the test on USA300 Δpbp4 (Staphylococcus aureus, USA300, read-out: MICs) it was 1 µg/mL (≈ 2.41 µM); in the test with MW2 Δpbp3/4, 1 µg/mL (≈ 2.41 µM). Further, the MIC in the test on MW2 Δpbp3 stood at 16 µg/mL (≈ 38.6 µM); in the test on MW2 ex Δpbp4 it was 1 µg/mL (≈ 2.41 µM); in the test on N315 wild-type, 64 µg/mL (≈ 154 µM); in the test on MW2 Δpbp4::pbp4, 16 µg/mL (≈ 38.6 µM); in the test with MW2 Δpbp4 (Staphylococcus aureus, read-out: MICs), 1 µg/mL (≈ 2.41 µM); in the test with COL wild-type, 64 µg/mL (≈ 154 µM). Further, the MIC in the test on MW2 (USA400) wild-type and in the test on USA300 wild-type was 16 µg/mL (≈ 38.6 µM) each time. Besides, the “reduction in MIC on loss of pbp4” value with USA300 Δpbp4 ({}) and in the test with MW2 Δpbp4 ({}) was 16 fold each time.
